Holding throughout (format): cell-based, human
In test [1] the test system is MeI 1479 (Malignant melanoma). The experiment in a line: 51Cr-release CTL-assay against tumor cell line MeI 1479. The settings on record: cell line MEL 1479 / MeI 1479, FIG. 3c / 3f. How it is done: (§1) In the CTL-assays, tumor cells, peptide-pulsed cells of different cell lines and autologous DC were used as target cells. Peptide-pulsed cells were pulsed with 50 μg/ml peptide (SEQ ID No. 1 or SEQ ID No. 2) for 2 hours. All target cells were labeled with [^51Cr] sodium chromate in RP10 (RPMI 1640, supplemented with 10% heat inactivated calf serum and antibiotics) for 1 hour at 37° C. Subsequently, 10^4 cells/well were transferred to a 96-well round bottomed plate. Varying numbers of CTL were added to give a final volume of 200 μl and incubated for 4 hours at 37° C. At the end of the assays, supernatants (50 μl/well) were harvested and counted in a beta-plate counter. […] The spontaneous and maximal release were determined in the presence of either medium or 2% Triton X-100, respectively.
(§2) Next, it was tested, in a standard tumor ^51Cr-release-assays again, whether CTL specific for the c-Met-peptide with SEQ ID No. 1 or for adipophilin-peptide with SEQ ID No. 2 recognized and lysed tumor cells, which endogenously express the c-Met-protooncogene or adipophilin. […]

Test [2] relates to autologous DC electroporated with RNA. In words: 51Cr-release CTL-assay against autologous DC electroporated with RNA. The procedure:
as §1
In a next experiment, the cytotoxic activity of CTL in an autologous setting was analyzed. In doing so, autologous DC, generated from the same PBMNC that were utilized for CTL induction (see under 2.2.), were used as target cells. Prior to the CTL-assay, the DC were electroporated with RNA, which was previously isolated either from tumor cell lines or which represented control-RNA (in vitro transcribed EGFP-RNA, enhanced Green fluorescent protein-RNA); plasmide: pSP64 Poly(A) EGFPII, obtained from Van Tendeloo, Antwerp, Belgium). Total RNA of tumor cells was isolated with the QIAGEN Rneasy Mini Kit (QIAGEN, Hilden, Germany) according to the manufacturer's protocol. Quantity and purity of RNA were determined by spectrophotometry and stored in aliquots at −80° C.
Prior to electroporation on day 6, immature DC were washed twice with serum-free X-VIVO 20 medium (BioWhittaker, Walkersville, USA) and resuspended to a final concentration of 2×10^7 cells/ml. Subsequently, 200 μl of the cell suspension were mixed with 10 μg of total RNA and electroporated in a 4 mm-cuvette using an Easyject Plus™ (Peglab, Erlangen, Germany) (parameters: 300 V, 150 μF, 1540Ω, pulse time 231 ms). After electroporation the cells were immediately transferred into RP10 medium and returned to the incubator.

For test [3], the system named is 51Cr-labeled A 498. The experiment in a line: Lysis-inhibition assay with cold peptide-pulsed T2 inhibitor cells, target A 498. How it is done: To further verify the antigen-specificity and the MHC-restriction of the in-vitro-induced CTL, inhibition assays with non-^51Cr-labeled (“cold”) inhibitor cell lines were performed.
In doing so, the ability of peptide-pulsed cell lines was analyzed to inhibit the lysis of tumor cells (competition assay). For this purpose, an excess of inhibitor (that is an excess of unlabeled pulsed cells) was used. The ratio of inhibitor (peptide-pulsed cells) to target (tumor cells) was 20:1. When inhibitor cell lines were lysed, no ^51Cr was released, since the inhibitor cell lines were unlabeled.
Cell line T2 (HLA-A*02; TAP-deficient; see under 2.5.a) was used as inhibitor. Previous to the assay, this cell line T2 was pulsed with the relevant peptides (SEQ ID NOS:1 or 2) or an irrelevant control peptide (Survivin (=Sv), SEQ ID NO:80), respectively.
In FIGS. 4a and 4b, lysis of the ^51Cr-labeled cell lines U 266 and A 498 was tested without inhibitor cell line (see the curve with black filled boxes); lysis with inhibitor cell line T2, pulsed with an irrelevant peptide (Survivin; SEQ ID NO:80; negative control, curves with the filled triangles); and lyses with the inhibitor cell line T2 pulsed with the c-Met-peptide with SEQ ID NO:1 (curves with the empty rhombus).
With these inhibition assays, the cells were incubated with 10 μg/ml antibody previous to seeding on the 96-well-plates for 30 min.

The test system of test [4] is MZ 1257 (renal cell carcinoma). The experiment in a line: 51Cr-release CTL-assay against tumor cell line MZ 1257. The conditions noted are these: cell line MZ 1257, FIG. 3c / 3f. How it is done:
as §1, §2

As for “SVASTITGV (listed as Homo sapiens) [SEQ ID No. 2, HLA-A*02 ligand, adipose differentiation-related protein 129-137]”, the “lysis of tumor cells by CTL induced with the peptide” value in test [1] and in test [4] was “efficiently lyse” each time. Moreover, the “lysis of autologous DC electroporated with tumor RNA by CTL induced with the peptide” value in test [2] (RNA of A 498, FIG. 5a / 5b) is listed as “lysed”. Moreover, the “lysis of autologous DC electroporated with RNA by CTL induced with the peptide” value in test [2] (control (EGFP) RNA, FIG. 5b) is recorded as “not lysed”. In addition, the “inhibition of CTL-induced lysis of tumor cell line by T2 cells pulsed with the peptide” value in test [3] (adipophilin-peptide-induced CTL, FIG. 4c) is listed as “able to inhibit”.
Take “YVDPVITSI (listed as Homo sapiens) [SEQ ID No. 1, HLA-A*02 ligand, met proto-oncogen 654-662]”: the “lysis of tumor cells by CTL induced with the peptide” value in test [1] and in test [4] was “efficiently lyse” each time. In addition, the “lysis of autologous DC electroporated with tumor RNA by CTL induced with the peptide” value is “specific lysis” in test [2] (RNA of A 498, FIG. 5a / 5b) and “specific lysis” in test [2] (RNA of MCF-7, FIG. 5a). Further, the “lysis of autologous DC electroporated with RNA by CTL induced with the peptide” value in test [2] (RNA of non-C-met-expressing cell line Croft, FIG. 5a) is “not lysed”. For the same sequence, in test [3] (c-Met-peptide-induced CTL, inhibitor:target 20:1, FIGS. 4a and 4b), the “lysis of 51Cr-labeled tumor cells in presence of unlabeled T2 inhibitor cells pulsed with the peptide” value was “not lysed”.
